According to ChEMBL document CHEMBL1926511, “Novel amino-piperidines as potent antibacterials targeting bacterial type IIA topoisomerases” (Bioorg Med Chem Lett, 2011):
In brackets after ≈: the same amount, converted by molar mass. Activity calls are given as the source filed them. No cut-off for these calls is given here.

Key:
[1] = Inhibition of Haemophilus influenzae DNA gyrase-dependent DNA replication by scintillation proximity assay
[2] = Distribution coefficient, log D of the compound at pH 7.4; format: physicochemical; conditions: octanol/water
[3] = target: T1, Voltage-gated inwardly rectifying potassium channel KCNH2 (Homo sapiens, UniProt Q12809); test: Displacement of [3H]dofetilide from human ERG by liquid scintillation counting
[4] = test system: Haemophilus influenzae; test: Antibacterial activity against Haemophilus influenzae H128 after 18 to 24 hrs by broth microdilution method; format: functional
[5] = test system: Streptococcus pneumoniae; test: Antibacterial activity against Streptococcus pneumoniae 1629 after 18 to 24 hrs by broth microdilution method; format: functional
[6] = test system: Staphylococcus aureus; test: Antibacterial activity against Staphylococcus aureus WCUH 29 after 18 to 24 hrs by broth microdilution method; format: functional
[7] = target: T1, Voltage-gated inwardly rectifying potassium channel KCNH2; test: Inhibition of human ERG expressed in HEK293 cells by patch-clamp electrophysiology; format: cell-based
[8] = Mean residence time in cynomolgus monkey at 3.1 mg/kg, iv; format: ADME, organism-based, Macaca fascicularis; design: dose 3.1 mg/kg, route intravenous; conditions: in vivo
[9] = Half life in Sprague-Dawley rat at 3.5 mg/kg, iv; format: ADME, organism-based; design: dose 3.5 mg/kg, route intravenous; conditions: in vivo
[10] = species: Canis familiaris; test: Hepatic blood flow in Beagle dog; format: ADME, organism-based, Canis lupus familiaris, Liver
[11] = AUC in Beagle dog at 4 mg/kg, po; format: ADME, organism-based, Canis lupus familiaris; design: dose 4 mg/kg, route oral; conditions: plasma
[12] = Mean residence time in Beagle dog at 3.5 mg/kg, iv; format: ADME, organism-based, Canis lupus familiaris; design: dose 3.5 mg/kg, route intravenous; conditions: in vivo
[13] = test system: Streptococcus pneumoniae; test: Antibacterial activity against Streptococcus pneumoniae 1629 infected in rat respiratory tract infection model assessed as complete eradication of bacterial burden at 50 mg/kg, po after 31 hrs post infection; format: functional, organism-based; design: dose 50 mg/kg
[14] = test system: Streptococcus pneumoniae; test: Antibacterial activity against Streptococcus pneumoniae 1629 infected in rat respiratory tract infection model assessed as log reduction in bacterial burden at 50 mg/kg, po after 1 hr post infection relative to non-treated control; format: functional
[15] = Volume of distribution at steady state in cynomolgus monkey at 3.1 mg/kg, iv; format: ADME, organism-based, Macaca fascicularis; design: dose 3.1 mg/kg, route intravenous; conditions: in vivo, read-out: Vdss
[16] = Volume of distribution at steady state in Beagle dog at 3.5 mg/kg, iv; format: ADME, organism-based, Canis lupus familiaris; design: dose 3.5 mg/kg, route intravenous; conditions: in vivo, read-out: Vdss
[17] = Volume of distribution at steady state in Sprague-Dawley rat at 3.5 mg/kg, iv; format: ADME, organism-based; design: dose 3.5 mg/kg, route intravenous; conditions: in vivo, read-out: Vdss
[18] = AUC in cynomolgus monkey at 5.2 mg/kg, po; format: ADME, organism-based, Macaca fascicularis; design: dose 5.2 mg/kg, route oral; conditions: plasma
[19] = Blood clearance in Sprague-Dawley rat at 3.5 mg/kg, iv; format: ADME, organism-based; design: dose 3.5 mg/kg, route intravenous; conditions: whole blood
[20] = Mean residence time in Sprague-Dawley rat at 3.5 mg/kg, iv; format: ADME, organism-based; design: dose 3.5 mg/kg, route intravenous; conditions: in vivo
[21] = Half life in cynomolgus monkey at 3.1 mg/kg, iv; format: ADME, organism-based, Macaca fascicularis; design: dose 3.1 mg/kg, route intravenous; conditions: in vivo
[22] = Intrinsic clearance in cynomolgus monkey liver microsomes; format: ADME, Macaca fascicularis, Microsome
[23] = Half life in Beagle dog at 3.5 mg/kg, iv; format: ADME, organism-based, Canis lupus familiaris; design: dose 3.5 mg/kg, route intravenous; conditions: in vivo
[24] = Oral bioavailability in Sprague-Dawley rat at 5.6 mg/kg; format: ADME, organism-based; conditions: in vivo
[25] = Plasma protein binding in cynomolgus monkey; format: ADME, cell-free, Macaca fascicularis; conditions: read-out: PPB (converted)
[26] = species: Rattus norvegicus; test: Hepatic blood flow in Sprague-Dawley rat; format: ADME, organism-based, Liver
[27] = AUC in Sprague-Dawley rat at 5.6 mg/kg, po; format: ADME, organism-based; design: dose 5.6 mg/kg, route oral; conditions: plasma
[28] = Plasma protein binding in human; format: ADME, cell-free; conditions: read-out: PPB (converted)
[29] = test system: Streptococcus pneumoniae; test: Antibacterial activity against Streptococcus pneumoniae 1629 infected in rat respiratory tract infection model assessed as log reduction in bacterial burden at 50 mg/kg, po after 48 hrs post infection relative to non-treated control; format: functional
[30] = test system: Liver microsomes; test: Intrinsic clearance in human liver microsomes; format: ADME, Microsome
[31] = test system: Liver; test: Intrinsic clearance in dog liver microsomes; format: ADME, Canis lupus familiaris, Microsome
[32] = Plasma protein binding in rat; format: ADME, cell-free; conditions: read-out: PPB (converted)
[33] = Blood clearance in Beagle dog at 3.5 mg/kg, iv; format: ADME, organism-based, Canis lupus familiaris; design: dose 3.5 mg/kg, route intravenous; conditions: whole blood
[34] = Oral bioavailability in Beagle dog at 4 mg/kg; format: ADME, organism-based, Canis lupus familiaris; conditions: in vivo
[35] = Oral bioavailability in cynomolgus monkey at 5.2 mg/kg; format: ADME, organism-based, Macaca fascicularis; conditions: in vivo
[36] = test system: Cynomolgus monkey; test: Hepatic blood flow in cynomolgus monkey; format: ADME, organism-based, Macaca fascicularis, Liver
[37] = Blood clearance in cynomolgus monkey at 3.1 mg/kg, iv; format: ADME, organism-based, Macaca fascicularis; design: dose 3.1 mg/kg, route intravenous; conditions: whole blood
[38] = Inhibition of Escherichia coli DNA gyrase-dependent DNA replication by scintillation proximity assay

T1 sequence (Q12809 whole entry): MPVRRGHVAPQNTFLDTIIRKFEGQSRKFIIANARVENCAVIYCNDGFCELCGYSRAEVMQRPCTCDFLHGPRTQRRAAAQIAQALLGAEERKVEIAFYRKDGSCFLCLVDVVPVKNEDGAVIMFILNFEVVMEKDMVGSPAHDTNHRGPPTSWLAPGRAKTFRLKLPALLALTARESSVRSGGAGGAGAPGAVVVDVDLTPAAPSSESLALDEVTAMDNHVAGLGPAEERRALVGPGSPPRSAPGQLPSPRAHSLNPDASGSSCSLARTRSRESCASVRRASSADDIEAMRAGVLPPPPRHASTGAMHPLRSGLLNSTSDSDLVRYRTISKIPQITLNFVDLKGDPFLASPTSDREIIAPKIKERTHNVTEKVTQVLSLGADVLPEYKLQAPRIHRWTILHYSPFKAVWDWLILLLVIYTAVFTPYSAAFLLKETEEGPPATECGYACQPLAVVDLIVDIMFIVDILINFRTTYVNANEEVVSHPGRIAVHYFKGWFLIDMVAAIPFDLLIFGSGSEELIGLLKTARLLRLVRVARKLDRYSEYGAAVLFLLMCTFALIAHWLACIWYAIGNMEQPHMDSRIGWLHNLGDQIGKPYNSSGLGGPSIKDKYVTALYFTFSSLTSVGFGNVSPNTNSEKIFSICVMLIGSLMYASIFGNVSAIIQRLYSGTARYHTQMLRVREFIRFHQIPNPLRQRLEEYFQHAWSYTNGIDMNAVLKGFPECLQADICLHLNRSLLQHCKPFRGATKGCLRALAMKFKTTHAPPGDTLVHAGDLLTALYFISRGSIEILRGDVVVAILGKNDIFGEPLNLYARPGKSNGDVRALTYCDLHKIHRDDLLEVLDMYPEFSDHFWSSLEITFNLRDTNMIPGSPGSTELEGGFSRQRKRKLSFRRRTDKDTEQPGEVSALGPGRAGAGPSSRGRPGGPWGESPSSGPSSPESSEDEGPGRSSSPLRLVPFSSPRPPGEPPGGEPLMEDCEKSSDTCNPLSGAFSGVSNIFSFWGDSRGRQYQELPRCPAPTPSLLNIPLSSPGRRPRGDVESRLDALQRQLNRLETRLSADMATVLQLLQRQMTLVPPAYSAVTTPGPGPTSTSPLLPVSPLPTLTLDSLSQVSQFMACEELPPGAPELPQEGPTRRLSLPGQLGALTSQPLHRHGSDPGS

COc1ccc2ncc(C#N)c(CCN3CCC(NCc4cc5c(cn4)OCS5)CC3)c2c1
IC50 [1]: 0.06 µg/mL (≈ 0.13 µM)
logD [2]: 2.32
IC50 [3]: 0.5 µM
MIC [4]: 0.25 µg/mL (≈ 0.542 µM)
MIC [5]: 0.01 µg/mL (≈ 0.0217 µM)
MIC [6]: 0.01 µg/mL (≈ 0.0217 µM)
IC50 [7]: 2 µM

COc1ccc2ncc(F)c([C@@H](O)CN3CCC(NCc4cc5c(cn4)OCCO5)CC3)c2n1
IC50 [1]: 0.078 µg/mL (≈ 0.166 µM)
logD [2]: 0.59
MRT [8]: 4.6 h
half-life [9]: 2.5 h
IC50 [3]: 79.4 µM
QH [10]: 35%
AUC [11]: 2510 ng·h/mL
MIC [4]: 0.5 µg/mL (≈ 1.06 µM)
MRT [12]: 16.5 h
Activity [13]: Active
log10cfu [14]: 2
Vd [15]: 4.1 L/kg
Vd [16]: 16.5 L/kg
Vd [17]: 9.8 L/kg
AUC [18]: 720 ng·h/mL
clearance [19]: 67.2 mL/min/kg
MRT [20]: 2.5 h
half-life [21]: 5.6 h
MIC [5]: 0.06 µg/mL (≈ 0.128 µM)
CL [22]: 4.8 mL/min/g
half-life [23]: 12.4 h
bioavailability [24]: 51%
fraction unbound [25]: 0.354
QH [26]: 100%
AUC [27]: 720 ng·h/mL
MIC [6]: 0.03 µg/mL (≈ 0.0639 µM)
fraction unbound [28]: 0.307
log10cfu [29]: >=4
IC50 [7]: 5 µM
CL [30]: < 0.6 mL/min/g
CL [31]: 0.7 mL/min/g
fraction unbound [32]: 0.589
clearance [33]: 16.7 mL/min/kg
bioavailability [34]: 76%
bioavailability [35]: 12%
QH [36]: 35%
clearance [37]: 15.2 mL/min/kg

COc1ccc2nccc([C@@H](O)CN3CCC(NCc4cc5c(cn4)OCCO5)CC3)c2n1
IC50 [1]: 0.016 µg/mL (≈ 0.0354 µM)
logD [2]: 0.62
IC50 [3]: 25.1 µM
MIC [4]: 2 µg/mL (≈ 4.43 µM)
MIC [5]: 0.125 µg/mL (≈ 0.277 µM)
MIC [6]: 0.06 µg/mL (≈ 0.133 µM)
IC50 [7]: 4 µM
IC50 [38]: 0.056 µg/mL (≈ 0.124 µM)

COc1ccc2ncc(Cl)c(CCN3CCC(NCc4cc5c(cn4)OCCO5)CC3)c2n1
IC50 [1]: 0.027 µg/mL (≈ 0.0575 µM)
logD [2]: 2.4
IC50 [3]: 2 µM
MIC [4]: 0.25 µg/mL (≈ 0.532 µM)
Activity [13]: Active
log10cfu [14]: 2
MIC [5]: 0.01 µg/mL (≈ 0.0213 µM)
MIC [6]: 0.01 µg/mL (≈ 0.0213 µM)
log10cfu [29]: >=4
IC50 [7]: 2 µM

COc1ccc2ncc(F)c([C@H](O)CN3CCC(NCc4cc5c(cn4)OCCO5)CC3)c2n1
IC50 [1]: 0.098 µg/mL (≈ 0.209 µM)
IC50 [3]: 63.1 µM
MIC [4]: 1 µg/mL (≈ 2.13 µM)
MIC [5]: 0.125 µg/mL (≈ 0.266 µM)
MIC [6]: 0.06 µg/mL (≈ 0.128 µM)

COc1ccc2ncc(F)c(CCN3CCC(NCc4cc5c(cn4)OCCO5)CC3)c2n1
IC50 [1]: 0.051 µg/mL (≈ 0.112 µM)
logD [2]: 1.81
MIC [4]: 0.125 µg/mL (≈ 0.276 µM)
Activity [13]: Active
log10cfu [14]: 2
MIC [5]: 0.01 µg/mL (≈ 0.022 µM)
MIC [6]: 0.01 µg/mL (≈ 0.022 µM)
log10cfu [29]: >=4

COc1ccc2nccc([C@@H](O)CN3CCC(NCc4ccc5c(c4)OCCO5)CC3)c2c1
logD [2]: 0.87
MIC [4]: 0.5 µg/mL (≈ 1.11 µM)
MIC [5]: 0.125 µg/mL (≈ 0.278 µM)
MIC [6]: 0.125 µg/mL (≈ 0.278 µM)
IC50 [38]: 0.008 µg/mL (≈ 0.0178 µM)

COc1ccc2ncc(F)c(CCN3CC[C@H](NCc4cc5c(cn4)OCCO5)[C@H](O)C3)c2n1
IC50 [1]: 0.072 µg/mL (≈ 0.153 µM)
logD [2]: 1.52
MIC [4]: 0.5 µg/mL (≈ 1.06 µM)
Activity [13]: Active
log10cfu [14]: 2
MIC [5]: 0.06 µg/mL (≈ 0.128 µM)
MIC [6]: 0.03 µg/mL (≈ 0.0639 µM)
log10cfu [29]: >=4

COc1ccc2ncc(F)c(CCN3CCC(NCc4cc5c(cn4)OCCO5)CC3)c2c1
IC50 [1]: 0.031 µg/mL (≈ 0.0685 µM)
logD [2]: 2.03
IC50 [3]: 5 µM
MIC [4]: 0.25 µg/mL (≈ 0.552 µM)
MIC [5]: 0.03 µg/mL (≈ 0.0663 µM)
MIC [6]: 0.01 µg/mL (≈ 0.0221 µM)
IC50 [7]: 6 µM

COc1ccc2ncc(F)c(CCN3CC[C@H](NCc4cc5c(cn4)OCCO5)[C@@H](O)C3)c2n1
IC50 [1]: 0.058 µg/mL (≈ 0.124 µM)
logD [2]: 2.1
MIC [4]: 0.5 µg/mL (≈ 1.06 µM)
MIC [5]: 0.03 µg/mL (≈ 0.0639 µM)
MIC [6]: 0.01 µg/mL (≈ 0.0213 µM)

COc1ccc2ncc(F)c(CCN3CC[C@@H](NCc4cc5c(cn4)OCCO5)[C@H](O)C3)c2n1
IC50 [1]: 0.058 µg/mL (≈ 0.124 µM)
logD [2]: 2.16
MIC [4]: 0.5 µg/mL (≈ 1.06 µM)
MIC [5]: 0.03 µg/mL (≈ 0.0639 µM)
MIC [6]: 0.01 µg/mL (≈ 0.0213 µM)

COc1ccc2ncc(F)c(CCN3CC[C@@H](NCc4cc5c(cn4)OCCO5)[C@@H](O)C3)c2n1
IC50 [1]: 0.051 µg/mL (≈ 0.109 µM)
logD [2]: 1.38
MIC [4]: 0.5 µg/mL (≈ 1.06 µM)
Activity [13]: Active
log10cfu [14]: 2
MIC [5]: 0.06 µg/mL (≈ 0.128 µM)
MIC [6]: 0.01 µg/mL (≈ 0.0213 µM)
log10cfu [29]: >=4

COc1ccc2ncc(C#N)c(CCN3CCC(NCc4cc5c(cn4)OCCO5)CC3)c2n1
IC50 [1]: 0.144 µg/mL (≈ 0.313 µM)
logD [2]: 1.48
MIC [4]: 0.5 µg/mL (≈ 1.09 µM)
MIC [5]: 0.03 µg/mL (≈ 0.0651 µM)
MIC [6]: 0.01 µg/mL (≈ 0.0217 µM)
